{"source": "patent US20180311203A1", "about": "“LIQUID FORMULATION OF CABAZITAXEL” (EMCURE PHARMACEUTICALS LIMITED, priority 2015, published 2018)", "origin": "cited, not measured here"}
{"smiles": "CO[C@H]1C(=O)[C@]2(C)[C@@H](OC)C[C@H]3OC[C@@]3(OC(C)=O)[C@H]2[C@H](OC(=O)c2ccccc2)[C@]2(O)C[C@H](OC(=O)[C@H](O)[C@@H](NC(=O)OC(C)(C)C)c3ccccc3)C(C)=C1C2(C)C", "note": "[cabazitaxel, (2α,5β,7β, 10β,13a)-4-acetoxy-13-({(2R,3S)-3 [(tertbutoxycarbonyl)amino]-2-hydroxy-3-phenylpropanoyl}oxy)-1-hydroxy-7,10-dimethoxy-9-oxo-5,20-epoxytax-11-en-2-yl benzoate]", "values": [{"measurement": "solubility in water", "value": "about 8 pg per mL"}]}
